We go through one compound from ChEMBL document CHEMBL4145686, “Discovery of a Potent and Selective Steroidal Glucocorticoid Receptor Antagonist (ORIC-101)” (J Med Chem, 2018).

Each structure is given as a SMILES string.

The target of data set [1] is T1, Glucocorticoid receptor (Homo sapiens, UniProt P04150).
T1 sequence (P04150 whole entry): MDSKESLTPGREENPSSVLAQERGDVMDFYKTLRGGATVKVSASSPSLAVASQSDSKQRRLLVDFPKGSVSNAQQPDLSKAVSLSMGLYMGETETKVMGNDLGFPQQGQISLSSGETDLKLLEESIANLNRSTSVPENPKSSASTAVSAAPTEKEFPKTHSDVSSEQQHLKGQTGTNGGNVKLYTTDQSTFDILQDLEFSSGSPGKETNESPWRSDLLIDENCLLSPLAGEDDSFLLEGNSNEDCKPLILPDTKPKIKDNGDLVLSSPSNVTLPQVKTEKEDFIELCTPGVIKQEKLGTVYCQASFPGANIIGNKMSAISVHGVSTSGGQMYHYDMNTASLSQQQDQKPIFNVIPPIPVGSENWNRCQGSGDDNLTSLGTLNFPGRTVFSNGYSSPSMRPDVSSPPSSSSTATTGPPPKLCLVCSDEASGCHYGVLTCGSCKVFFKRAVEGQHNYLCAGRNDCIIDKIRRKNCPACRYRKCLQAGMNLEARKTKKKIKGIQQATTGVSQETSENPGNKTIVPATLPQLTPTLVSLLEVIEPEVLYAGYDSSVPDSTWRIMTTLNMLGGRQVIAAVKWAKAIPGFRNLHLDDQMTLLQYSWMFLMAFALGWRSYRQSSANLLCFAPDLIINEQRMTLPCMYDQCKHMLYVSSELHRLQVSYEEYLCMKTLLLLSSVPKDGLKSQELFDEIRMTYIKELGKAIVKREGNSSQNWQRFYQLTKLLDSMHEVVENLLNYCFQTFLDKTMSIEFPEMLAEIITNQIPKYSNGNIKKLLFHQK
Put plainly: Antagonist activity at human GR expressed in CHO-K1 cells assessed as reduction in dexamethasone-induced response incubated for 20 hrs by luciferase reporter gene assay. It is filed as cell-based. Background: A reporter such as luciferase makes a cellular process visible.

Data set [2] is described as follows: Volume of distribution at steady state in rat at 0.5 mg/kg, iv. The data set is classed as ADME, organism-based. Conditions: in vivo, read-out: Vdss; call rule not given here.
A short description of data set [3]: Volume of distribution at steady state in mouse at 0.5 mg/kg, iv. The data set is classed as ADME, organism-based. Conditions: in vivo, read-out: Vdss.
Data set [4] in a line: Oral bioavailability in mini pig at 10 mg/kg. It is filed as ADME, organism-based, Sus scrofa. The note with it: in vivo.
A short description of data set [5]: Cmax in mini pig at 10 mg/kg, po. It is filed as ADME, organism-based, Sus scrofa. Also noted: dose 10 mg/kg, route oral. Conditions: in vivo.
The target in data set [6] is Cytochrome P450 3A4 (Homo sapiens, UniProt P08684). The experiment in a line: Inhibition of CYP3A4 (unknown origin) using midazolam as substrate. The data set is classed as ADME.
The target of data set [7] is T2, Cytochrome P450 2C8 (Homo sapiens, UniProt P10632).
T2 sequence (P10632 whole entry): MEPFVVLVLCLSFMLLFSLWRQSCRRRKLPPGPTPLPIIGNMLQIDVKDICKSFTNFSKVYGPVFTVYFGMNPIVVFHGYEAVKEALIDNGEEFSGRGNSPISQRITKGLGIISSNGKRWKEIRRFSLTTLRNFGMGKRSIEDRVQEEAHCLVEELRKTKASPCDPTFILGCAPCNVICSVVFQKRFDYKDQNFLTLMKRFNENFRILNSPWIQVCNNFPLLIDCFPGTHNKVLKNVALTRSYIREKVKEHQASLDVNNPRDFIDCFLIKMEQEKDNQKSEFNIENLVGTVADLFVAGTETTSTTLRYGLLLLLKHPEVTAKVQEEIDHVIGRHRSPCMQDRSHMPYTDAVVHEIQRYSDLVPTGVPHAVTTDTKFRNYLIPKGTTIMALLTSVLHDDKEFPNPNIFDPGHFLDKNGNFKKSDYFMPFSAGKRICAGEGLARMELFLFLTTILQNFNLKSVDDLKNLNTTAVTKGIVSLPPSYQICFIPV
The experiment in a line: Inhibition of CYP2C8 (unknown origin) using […] as substrate. It is filed as ADME.

Data set [8] concerns the target T3, Estrogen receptor (Homo sapiens, UniProt P03372).
T3 sequence (P03372 whole entry): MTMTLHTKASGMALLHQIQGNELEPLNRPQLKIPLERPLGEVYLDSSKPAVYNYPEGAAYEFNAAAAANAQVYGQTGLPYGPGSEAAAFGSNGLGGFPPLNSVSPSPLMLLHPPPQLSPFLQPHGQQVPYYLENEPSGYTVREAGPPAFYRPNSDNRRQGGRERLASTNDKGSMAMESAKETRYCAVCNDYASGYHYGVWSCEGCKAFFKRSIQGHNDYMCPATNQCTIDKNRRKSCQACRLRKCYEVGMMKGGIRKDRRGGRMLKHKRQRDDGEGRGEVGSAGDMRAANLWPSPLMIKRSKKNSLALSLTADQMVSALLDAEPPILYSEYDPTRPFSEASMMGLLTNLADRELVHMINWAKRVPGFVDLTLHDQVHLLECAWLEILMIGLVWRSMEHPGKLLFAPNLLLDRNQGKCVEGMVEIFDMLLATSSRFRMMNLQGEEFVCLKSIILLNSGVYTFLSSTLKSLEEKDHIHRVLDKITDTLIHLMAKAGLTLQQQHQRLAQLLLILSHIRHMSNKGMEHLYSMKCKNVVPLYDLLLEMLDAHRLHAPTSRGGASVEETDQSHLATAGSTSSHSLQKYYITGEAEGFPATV
The experiment in a line: Binding affinity to untagged human recombinant full length ERalpha expressed in insect cells up to 1 uM by Fluormone ES2 Green displacement based assay.

The target of data set [9] is T1, Glucocorticoid receptor. Put plainly: Antagonist activity at GR in human PBMC assessed as reduction in dexamethasone-induced FKBP5 gene expression incubated for 6 hrs by RT-qPCR method. The data set is classed as cell-based. On the technique in general: In qPCR the cycle at which signal appears reflects the starting amount.
Data set [10] can be described thus: Antagonist activity at GR in monkey PBMC assessed as reduction in dexamethasone-induced FKBP5 gene expression incubated for 6 hrs by RT-qPCR method. Conditions: Macaca mulatta. It is filed as cell-based.

Chain of Cytochrome P450 3A4 (P08684 whole entry): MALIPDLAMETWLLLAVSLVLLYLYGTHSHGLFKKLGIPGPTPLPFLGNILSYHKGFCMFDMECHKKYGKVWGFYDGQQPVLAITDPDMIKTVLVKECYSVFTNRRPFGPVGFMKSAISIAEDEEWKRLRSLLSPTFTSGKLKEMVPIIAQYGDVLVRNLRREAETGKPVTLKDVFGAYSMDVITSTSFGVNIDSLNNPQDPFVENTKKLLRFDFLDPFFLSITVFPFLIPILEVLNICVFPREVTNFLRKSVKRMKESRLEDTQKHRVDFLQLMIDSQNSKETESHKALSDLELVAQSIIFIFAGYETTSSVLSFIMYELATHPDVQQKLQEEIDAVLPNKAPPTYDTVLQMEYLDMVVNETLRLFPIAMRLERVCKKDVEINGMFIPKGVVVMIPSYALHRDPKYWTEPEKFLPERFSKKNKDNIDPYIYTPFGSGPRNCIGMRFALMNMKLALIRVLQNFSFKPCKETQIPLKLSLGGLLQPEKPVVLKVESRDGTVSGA

On to `CC(C)N(C)c1ccc([C@H]2C[C@@]3(C)[C@@H](CC[C@@]3(O)C#CC(C)(C)C)[C@@H]3CCC4=CC(=O)CC[C@@H]4[C@H]32)cc1`, for which the IC50 (as a rule, the midpoint of a concentration-inhibition curve) in [1] is 5.6 nM; in [6], 1600 nM; in data set [7] it was more than 10000 nM; in data set [9], 19.5 nM; in data set [10], 11.1 nM. Moreover, the results for the Vd in [2] and in [3] were 4.6 L/kg and 5.01 L/kg, respectively. For the same compound, in [4], the bioavailability (as a rule, the share of a dose that reaches the circulation, judged against a reference dose that is usually intravenous) was 20%. For the same compound, the Cmax (in general, the maximum level reached in the sampled fluid or tissue) in [5] was determined as 153 ng/mL. The Activity result in data set [8] was “Not Active”.
